# Patent US20120101163A1, “COMPOSITION FOR INHIBITING CANCER METASTASIS” (TAIPEI MEDICAL UNIVERSITY, priority 2010, published 2012)
# pIC50: −log10 of the molar value.
# Assays:
# Assay type in all cases: cell-based, Human
# [1] = test system: matrix metalloproteinase-2; experiment: Gelatin gel zymography of PMA-induced HT 1080 cells, MMP-2 activity
# Method: 4. Gelatin Gel Zymography (Shim et al., 2003; Park et al., 2005; Hwang et al., 2006)
# HT 1080 cells with appropriate cell numbers were cultured in 60 mm culturing plates for 12 hours, respectively. After the cells were attached onto the bottom of the plate and formed a monolayer, the medium in the plate was removed. Fresh serum free mediums with different concentrations of a test sample were added to the plates, respectively, and 100 nM PMA was added to each plate to induce the cells to express great quantities of matrix metalloproteinase-2 and matrix metalloproteinase-9, and the plates were placed in a temperature of 37° C. for 24 hours. After centrifugation, each cultured supernatant were saved and mixed with SDS-sample buffer under the same protein contents which were then injected into a 10% SDS-polyacrylamide gel (containing 1 mg/ml gelatin) and then electrophoresed. After the electrophoresis was completed, the gel was taken out and washed with 20 mM Tris-HCl containing 25% isopropanol three times; 10 minutes per time. Then the gel was equilibrated with 20 mM Tris-HCl for 30 minutes, and finally an incubate buffer (5 mM CaCl2 and 1 mM ZnCl2) was added to the gel and reacted with the gel overnight. Then the gel was stained with coomassie blue, and positions having matrix metalloproteinase activity of the gel presented a white color.
# [2] = test system: matrix metalloproteinase-9; experiment: Western blot analysis, MMP-9 protein expression in HT 1080 cells
# Method: HT 1080 cells with appropriate cell numbers were cultured in 60 mm culturing plates for 12 hours, respectively. After the cells were attached onto the bottom of the plate and formed a monolayer, the medium in the plate was removed. Fresh serum-free mediums with different concentrations of a test drug were added to the plates, respectively, and 100 nM PMA was added to each plate to induce the cells to express great quantities of matrix metalloproteinase-2 and matrix metalloproteinase-9, and the plates were placed in a temperature of 37° C. for 24 hours. A quantitatively cultured supernatant in each plate was centrifuged or protein was extracted from cells in each plate to be quantitated, and then an SDS-sample buffer containing 2-ME was added therein to form a mixture. The mixture was injected into a 10% SDS-polyacrylamide gel […] and then electrophoresed. After electrophoresis was completed, the proteins in the gel were transferred to a PVDF membrane. The PVDF membrane was equilibrated with gelatin-NET at room temperature for 30 minutes. […]
# HT 1080 cells [3] = experiment: Invasion assay (Matrigel transwell)
# Method: 10. Invasion Assay (Lee et al., 2005; Huang et al., 2005; Park et al., 2005)
# HT 1080 cells were used to prepare a cell suspension with an appropriate concentration by a fresh serum free medium and than placed in each upper chamber of each transwell (BD Matrigel™ Invasion Chamber 24-Well Plate 8.0 Micron). Fresh serum containing mediums with different concentrations of a test drug were added to the lower chambers of the transwells, respectively. The transwells were placed in an incubator containing 5% CO2 at 37° C. for 18 hours. After that, the medium in the upper chamber was removed and cells on the upper surface of the membrane of the transwell were wiped by a cotton swab. Finally, the cells were fixed and stained. The calculation for the invasion rate of the cells was:
# Ne: Numbers of cells crossing the membrane Nc: Numbers of total cells
# HT 1080 cells [4] = experiment: Cell adhesion assay (gelatin-coated plate)
# Method: 11. Cell Adhesion Assay (Lee et al., 2005; Ouyang et al., 2005; Zhang et al., 2005)
# HT 1080 cells were used to prepare a cell suspension with an appropriate concentration by a fresh serum free medium, and the cell suspension was mixed with test drugs with different concentrations, respectively and then added to wells of a 24 well culturing plate pre-coated with gelatin, respectively. The 24 well culturing plates were placed in an incubator at 37° C. for 30 minutes. After that, the upper medium in each well was removed and the cells were washed with a PBS buffer twice, and then an MTT solution which was prepared with a medium was added to each well. After the 24 well culturing plates were placed in an incubator at 37° C. for reacting for 4-6 hours, an upper medium in each well was removed, and 100 μl of DMSO was added to each well to solubilize the formazan precipitates. After that, an ELISA reader was used to determine the absorbance at 600 nm for each well. The calculation for the adhesion rate of the cells was: […]
# [5] = about 0.1-3 mM, stated as embodiment
smiles,measurement,setting,value
"NC(CCC(=O)NO)C(=O)O [DH, L-Glutamic acid γ-hydroxamate]",protein activity of matrix metalloproteinase-2 secreted out of and left in HT 1080 cells,"[1]; 0.4, 0.8, 1.2, and 1.6, 24 hours",also decreased
same,inhibition rate to the activity of matrix metalloproteinase-2,[1]; HT 1080 cells treated 24 hours,greater than 50%
same,matrix metalloproteinase-2 inhibiting activity,"[1]; HT 1080 cells, 0.4, 0.8, 1.2 and 1.6 mM, 24 hours",increased while the concentration thereof was increased
same,inhibition rate to the protein activity of metalloproteinase-2 of a cancer cell,"[1]; about 0.1-2 mM, stated as embodiment, 'and/or' MMP-9",40-70%
same,protein expression amount of matrix metalloproteinase-9 secreted out of and left in HT 1080 cells,"[2]; 0.4, 0.8, 1.2, and 1.6, 24 hours, Western blotting",all decreased
same,inhibition rate to the protein expression amount of matrix metalloproteinase-9 of a cancer cell,"[2]; about 0.1-2 mM, stated as embodiment, 'and/or' MMP-2",40-90%
same,pIC50,"HT 1080 cells [3]; Homo sapiens, HT-1080, 0.8, 1.6 and 2.4 mM, 18 hours, read-out: IC50 HT 1080 crossing membrane to the lower chamber (invasion)",2.90
same,inhibition rate to cancer cell invasion,HT 1080 cells [3]; [5],40-85%
same,number of HT 1080 cells attached (adhesion),"HT 1080 cells [4]; 0.4, 1.2, 2 and 2.8 mM, gelatin coated plate, 30 minutes",slight dose dependent decreasing trend
same,inhibition rate to cancer cell adhesion,HT 1080 cells [4]; [5],10-30%
